Holding throughout (type): in vivo, mouse
Experiment [1] concerns Aβ40 and Aβ42. Briefly: Brain (cerebral cortex) Aβ40 and Aβ42 by ELISA. The note with it: after 15 months of treatment (19 months of age). The procedure: (§1) The study was performed on Ts65Dn male, using the administration of CHF 5074 in the diet (375 ppm, equivalent to approximately 60 mg/kg/day).
(§2) The treatment started at 2 to 3 months of age and it was chronically administered in the diet for 15 months, until 19 months of age.
(§3) Treatment groups were: • Wild-type mice receiving standard diet (N=20) • Wild-type mice receiving CHF 5074-medicated diet (375 ppm, approximately 60 mg/kg/day) (N=20) • Ts65Dn mice receiving standard diet (N=20) • Ts65Dn mice receiving CHF 5074-mediacted diet (375 ppm, approximately 60 mg/kg/day) (N=20)
(§4) Aβ40 and Aβ42 were measured by ELISA in plasma and brain extracts (IBL kit for mouse Aβ40/Aβ42);
FIGS. 7 A, B, C, and D illustrates the brain (cerebral cortex) levels of Aβ40 and Aβ42 in animals after 15 months of treatment (19 months of age). Results are expressed as pmol/gr proteins (panels A and B), and as fmol/g wet tissue (panels C and D). There was a substantial increase in Aβ40 and Aβ42 brain levels in Ts65Dn mice compared to wild-type animals.
In general terms: ELISA stands for enzyme-linked immunosorbent assay.

For experiment [2], the system named is Ionized calcium binding adaptor molecule 1 (Iba1). As to the kind of experiment: Activated microglia, Iba1 immunoreactivity in hippocampus. Conditions: CA1/2 hippocampus, aged Ts65Dn mice, diet 375 ppm, vs Ts65Dn on standard diet. The protocol: as §1, §2, §3
(§5) Brain morphology was assessed by immunohistochemistry, immunofluorescence and quantitative morphometry and microdensitometry according to Imbimbo B P et al., J Alzheimer Dis 2010; 20:159-173; Sivilia S et al., BMC Neurosci 2013; 14: 44; and Guidi S et al., Brain 2014; 137: 380-401, all of which are incorporated herein by reference in their entireties. The following proteins were investigated:
Ionized calcium binding adaptor molecule 1 (Iba1), as microglia marker in hippocampus;

Experiment [3] deals with Glial fibrillary acidic protein (GFAP). Briefly: Reactive astrocytes, GFAP immunoreactivity in hippocampus. Conditions: CA1/2 hippocampus, aged Ts65Dn mice, diet 375 ppm, vs Ts65Dn on standard diet. The protocol: as §1, §2, §3, §5
Glial fibrillary acidic protein (GFAP) as astrocyte marker in hippocampus;

Experiment [4] relates to Ts65Dn mice. As to the kind of experiment: Y-maze test, spatial learning and memory. The protocol: as §1, §2, §3
(§6) Animals were provided by Jackson Laboratory, Bar Harbor, Me., USA) in small cohorts. Ts65Dn segmental male trisomic mice were used. Ts65Dn mice were compared with diploid controls from the same litters.
Spatial learning and memory were assessed with the Y-maze test according to Stewart S et al., J Alzheimer Dis 2011; 26: 105-126, which is incorporated herein by reference in its entirety.
Animals were tested in a single trial Y maze task, to measure arm entries (A) and alternation (B). The percentage of spontaneous alternations is defined as (total alternations/total arm entries-2)×100.

Experiment [5] relates to Aβ40 and Aβ42. As to the kind of experiment: Plasma Aβ40 and Aβ42 by ELISA. The protocol: as §1, §2, §3, §4
FIGS. 6 A and B illustrates the plasma levels of Aβ40 and Aβ42 peptides in animals after 15 months of treatment (19 months of age). There was a substantial increase in Aβ40 and Aβ42 plasma levels in Ts65Dn mice compared to wild-type animals.

Experiment [6] deals with Amyloid precursor protein intracellular domain (AICD). As to the kind of experiment: AICD immunoreactivity in CA1/2 hippocampal neurons. The note with it: CA1/2 hippocampal regions, Ts65Dn mice, p<0.0001.
Protocol: Amyloid precursor protein intracellular domain (AICD) (cleavage sites C83 and C99) in hippocampus.
Quantification was carried out by counting the percentage of neurons having AICD-positivity.
In experiment [7] the test system is APP mRNA. As to the kind of experiment: APP mRNA expression by real-time PCR in hippocampus and basal ganglia. The note with it: wild-type animals, medicated diet for 15 months.
Protocol: Molecular biology markers were measured in hippocampus and basal ganglia by real-time PCR, according to Massella A et al., BMC Neuroscience 2012; 13: 12; and D'Intino G et al., J Neuroendocrinol 2011; 23: 778-790, both of which are incorporated herein by reference in their entireties.
The test system of experiment [8] is Ts65Dn mice. Briefly: CatWalk computerized gait analysis, locomotion. The protocol:
as §1, §2, §3, §6
Locomotion deficits were assessed with the CatWalk technology (gait analysis) according to Faizi M et al., Neurobiol Dis 2011; 43: 397-413, which is incorporated herein by reference in its entirety.
The print area of front and hind paws is presented, as corrected according to the individual animal body weight. […] CHF 5074 treatment normalized this gait parameter.

Experiment [9] relates to Vesicular GABA transporter (VGAT). As to the kind of experiment: VGAT immunostaining in hippocampus. Conditions: CA1/2 hippocampus, Ts65Dn mice, after 15 months of treatment. The procedure: as §1, §2, §3, §5
Vesicular GABA transporter (VGAT), as marker of GABAergic synapses in hippocampus;
(§7) FIG. 10 illustrates main markers of synaptic transmission in the CA1/2 regions of the hippocampus after 15 months of treatment (19 months of age). […] Panel B reports the variation of immunostaining for the glutamate transporter VGLUT1 with a substantial decrease in Ts65Dn mice compared to wild-type animals. […]

Experiment [10] relates to Synaptophysin. As to the kind of experiment: Synaptophysin immunostaining in hippocampus. Conditions: CA1/2 hippocampus, after 15 months of treatment, between experimental groups. The procedure:
as §1, §2, §3, §5
Synaptophysin. It is a pre-synaptic vesicle membrane protein known to mediate vesicle release in hippocampus;
as §7

Experiment [11] relates to total APP/Aβ40/Aβ42 peptides. As to the kind of experiment: Intraneuronal APP immunohistochemistry and microdensitometry in cerebral cortex. Conditions: Ts65Dn mice treated vs control transgenic animals.
Protocol: Intraneuronal APP was measured by immunohistochemistry and computerized microdensitometry (Chemicon clone 22C11) in cerebral cortex;
The mark [12] stands for this setting: wild-type and Ts65Dn mice, after 15 months of treatment (19 months of age).

Molecules are shown by their SMILES.

Consider one compound from US20150335596A1, “1-(2-FLUOROBIPHENYL-4-YL)-CYCLOPROPANECARBOXYLIC ACID DERIVATIVES FOR THE TREATMENT OF DOWN'S SYNDROME” (CHIESI FARMACEUTICI S.P.A., priority 2014, published 2015).

Take `O=C(O)C1(c2ccc(-c3ccc(Cl)c(Cl)c3)c(F)c2)CC1` [CHF 5074, 1-(3′,4′-dichloro-2-fluorobiphenyl-4-yl)cyclopropanecarboxylic acid]: in experiment [1], the “brain Aβ40 levels” value is on record as “did not modify significantly” and the “brain Aβ42 levels” value is given as “did not modify significantly”. Further, the “Iba1-immunoreactivity (activated microglia)” value in experiment [2] is “substantial reduction”. Moreover, in experiment [3], the “GFAP-immunoreactivity (reactive astrocytes)” value is reported as “substantial reduction”. Besides, the “spontaneous alternation in Y maze (spatial memory)” value in experiment [4] (CHF 5074 in diet 375 ppm (approx. 60 mg/kg/day), tested after 6, 9 and 15 months of treatment) is “progressively normalized”. For the same compound, the “spontaneous alternation in Y maze compared to wild-type mice” value in experiment [4] (diet 375 ppm, after 15 months of treatment) is on record as “not significantly different”. The “spatial memory deficit (study summary)” value in experiment [4] (prolonged oral treatment) was “attenuated”. Further, in [5] (setting [12]), the “plasma level of Aβ40” value is “further increased” and the “plasma level of Aβ42” value is on record as “further increased”. The “significance of the increase in plasma Aβ42” value in experiment [5] (wild-type animals, after 15 months of treatment) was “significant”. Also, the “increase in percentage of AICD-positive neurons” value in experiment [6] was “significantly attenuated”. Besides, the “APP mRNA levels” value in experiment [7] is reported as “slightly but significantly increased”. In experiment [8] (diet 375 ppm, after 15 months of treatment (19 months of age)), the “hind paw print area (gait parameter, corrected for body weight)” value is reported as “normalized”. For the same compound, in experiment [8] (prolonged oral treatment), the “locomotion deficit (study summary)” value was “completely reversed”. Further, the “increase of immunostaining for the GABA transporter VGAT” value in experiment [9] was “completely reversed”. Moreover, in experiment [10], the synaptophysin levels result was “no significant differences”. Further, the “intracellular immunoreactivity of total APP/Aβ40/Aβ42 peptides in cortical neurons” value in experiment [11] was “significant decrease”.
